Starred links: 1 amine or outer side, 2 acyl side, 3 side chain; linkers in the order of their positions; H or OH if unused. Residues, ends and D or L forms follow the SMILES beside them. Groups on a side chain read outwards from the residue. No end group written: not given here. *: point of attachment. C18 diacid = O=C(O)CCCCCCCCCCCCCCCCC(=O)*; γGlu = O=C(O)[C@H](CCC(=O)[*:2])N[*:1]; Palmitoyl = CCCCCCCCCCCCCCCC(=O)*; AEEA = NCCOCCOCC(=O)O
T1: recombinant human CRF2 (HEK cell membranes) (human, UniProt Q13324 1-411)
T1 construct: Whole receptor in membranes prepared from HEK cells; also called CRF2a (h); CRF2 receptor
T1 sequence (looked up): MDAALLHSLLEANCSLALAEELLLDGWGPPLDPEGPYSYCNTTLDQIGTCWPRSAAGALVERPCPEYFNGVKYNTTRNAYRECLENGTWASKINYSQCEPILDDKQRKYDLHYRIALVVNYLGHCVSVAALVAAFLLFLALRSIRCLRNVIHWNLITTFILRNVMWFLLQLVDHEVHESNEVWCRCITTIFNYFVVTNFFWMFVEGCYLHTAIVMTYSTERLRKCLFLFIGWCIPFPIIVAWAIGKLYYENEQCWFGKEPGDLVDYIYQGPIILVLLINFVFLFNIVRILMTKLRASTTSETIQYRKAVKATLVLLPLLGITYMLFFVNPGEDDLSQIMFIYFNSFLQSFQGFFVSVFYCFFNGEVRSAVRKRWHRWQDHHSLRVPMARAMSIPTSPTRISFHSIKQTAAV

T2: anti-target CRF1R receptor (UniProt P34998 24-415, limits assumed)
T2 sequence (looked up): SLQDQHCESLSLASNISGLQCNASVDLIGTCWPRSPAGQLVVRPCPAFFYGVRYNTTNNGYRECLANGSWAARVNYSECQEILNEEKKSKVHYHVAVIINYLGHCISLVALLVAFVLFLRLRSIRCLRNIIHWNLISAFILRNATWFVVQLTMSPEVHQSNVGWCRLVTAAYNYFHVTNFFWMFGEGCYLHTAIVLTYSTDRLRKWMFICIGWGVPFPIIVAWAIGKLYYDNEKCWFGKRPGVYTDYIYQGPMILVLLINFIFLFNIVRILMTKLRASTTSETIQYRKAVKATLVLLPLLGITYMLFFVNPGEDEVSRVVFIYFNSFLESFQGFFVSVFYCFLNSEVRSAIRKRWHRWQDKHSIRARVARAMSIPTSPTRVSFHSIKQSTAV

B1: peptide of SEQ ID NO: 51 (peptide)
peptide: FTLSLDVPTKIK([AEEA-AEEA-γGlu-C18 diacid])QILLKQQKQKKERQQAEKNKQLLEQI-NH2
modifications: N-terminus assumed
SMILES: CC[C@H](C)[C@H](NC(=O)[C@H](CCC(N)=O)NC(=O)[C@H](CCC(=O)O)NC(=O)[C@H](CC(C)C)NC(=O)[C@H](CC(C)C)NC(=O)[C@H](CCC(N)=O)NC(=O)[C@H](CCCCN)NC(=O)[C@H](CC(N)=O)NC(=O)[C@H](CCCCN)NC(=O)[C@H](CCC(=O)O)NC(=O)[C@H](C)NC(=O)[C@H](CCC(N)=O)NC(=O)[C@H](CCC(N)=O)NC(=O)[C@H](CCCNC(=N)N)NC(=O)[C@H](CCC(=O)O)NC(=O)[C@H](CCCCN)NC(=O)[C@H](CCCCN)NC(=O)[C@H](CCC(N)=O)NC(=O)[C@H](CCCCN)NC(=O)[C@H](CCC(N)=O)NC(=O)[C@H](CCC(N)=O)NC(=O)[C@H](CCCCN)NC(=O)[C@H](CC(C)C)NC(=O)[C@H](CC(C)C)NC(=O)[C@@H](NC(=O)[C@H](CCC(N)=O)NC(=O)[C@H](CCCCNC(=O)COCCOCCNC(=O)COCCOCCNC(=O)CC[C@H](NC(=O)CCCCCCCCCCCCCCCCC(=O)O)C(=O)O)NC(=O)[C@@H](NC(=O)[C@H](CCCCN)NC(=O)[C@@H](NC(=O)[C@@H]1CCCN1C(=O)[C@@H](NC(=O)[C@H](CC(=O)O)NC(=O)[C@H](CC(C)C)NC(=O)[C@H](CO)NC(=O)[C@H](CC(C)C)NC(=O)[C@@H](NC(=O)[C@@H](N)Cc1ccccc1)[C@@H](C)O)C(C)C)[C@@H](C)O)[C@@H](C)CC)[C@@H](C)CC)C(N)=O
B2: peptide of SEQ ID NO: 17 (peptide)
peptide: IVLSLDVPIKLK([γGlu-Palmitoyl])KILLEQEKQKKQREQAETNKQILAQV-NH2
modifications: N-terminus assumed
SMILES: CCCCCCCCCCCCCCCC(=O)N[C@@H](CCC(=O)NCCCC[C@H](NC(=O)[C@H](CC(C)C)NC(=O)[C@H](CCCCN)NC(=O)[C@@H](NC(=O)[C@@H]1CCCN1C(=O)[C@@H](NC(=O)[C@H](CC(=O)O)NC(=O)[C@H](CC(C)C)NC(=O)[C@H](CO)NC(=O)[C@H](CC(C)C)NC(=O)[C@@H](NC(=O)[C@@H](N)[C@@H](C)CC)C(C)C)C(C)C)[C@@H](C)CC)C(=O)N[C@@H](CCCCN)C(=O)N[C@H](C(=O)N[C@@H](CC(C)C)C(=O)N[C@@H](CC(C)C)C(=O)N[C@@H](CCC(=O)O)C(=O)N[C@@H](CCC(N)=O)C(=O)N[C@@H](CCC(=O)O)C(=O)N[C@@H](CCCCN)C(=O)N[C@@H](CCC(N)=O)C(=O)N[C@@H](CCCCN)C(=O)N[C@@H](CCCCN)C(=O)N[C@@H](CCC(N)=O)C(=O)N[C@@H](CCCNC(=N)N)C(=O)N[C@@H](CCC(=O)O)C(=O)N[C@@H](CCC(N)=O)C(=O)N[C@@H](C)C(=O)N[C@@H](CCC(=O)O)C(=O)N[C@H](C(=O)N[C@@H](CC(N)=O)C(=O)N[C@@H](CCCCN)C(=O)N[C@@H](CCC(N)=O)C(=O)N[C@H](C(=O)N[C@@H](CC(C)C)C(=O)N[C@@H](C)C(=O)N[C@@H](CCC(N)=O)C(=O)N[C@H](C(N)=O)C(C)C)[C@@H](C)CC)[C@@H](C)O)[C@@H](C)CC)C(=O)O

Columns and labels:
[1] = Effect on body mass, body fat content and food intake in high-fat diet fed (DIO) mice (Example 18); format: in vivo, C57BL/6N Crl mice
Description: The peptide of SEQ ID NO: 35 was assessed for its ability to reduce body mass and body fat content in mice. Its efficacy was compared with that of a reference compound, namely the compound of Example 4 of WO2018013803 (Alsina-Fernandez; Eli Lilly and Company), referred to herein as “Compound A”.
Female C57BL/6N Crl mice were group housed under vivarium conditions that included a 12 h light/dark cycle and a room temperature of 23±1° C. All animals had free access to water and diet (Ssniff adjusted high fat diet: TD.97366, Soest, Germany) for 18 weeks prior to pharmacological intervention (dosing phase). After the pre-feeding period, mice were single housed and randomized according to body weight to treatment groups with n=8, so that each group has similar mean body weight. At the start of the study, mice were between 25-26 weeks old with body weight of 42-50 g. Mice were treated every second day during late afternoon hours prior lights off with a subcutaneous injection of 8 nmol/kg of the test compounds or their vehicle (phosphate-buffered saline (PBS). Body weight and food intake were measured daily throughout the dosing phase while body fat content was measured at day 0 prior to the start of treatment and at day 15. The study was terminated on day 15.
For statistical analyses a One-Way Analysis of Variance (ANOVA) was performed with SigmaStat 3.5. The test was performed with a risk alpha of 0.050 and a comparison versus the high fat diet-Vehicle group was performed with Dunnett's tests.

[2] = Effect on blood pressure, telemetry (Example 17); format: in vivo; conditions: Sprague Dawley rats, 0.1 mg/kg SC
How it was run: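 Sprague Dawley rats with an aortic-catheter telemetry implant, recovered at least 2 weeks, given compound or vehicle at 0.1 mg/kg SC. HR, SBP, DBP and MBP recorded continuously for 48 h. Each 4-hour post-dose mean was compared with a 1-hour pre-dose basal mean.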

[3] = molecular target: rat CRF2R α receptor (rat, UniProt P47866 20-411); experiment: cell-based or functional assay
[4] = molecular target: T1, recombinant human CRF2 (HEK cell …); experiment: Hill coefficient of the competition curve against [125]sauvagine, HEK membranes with recombinant human CRF2
Description: (§1) HEK cells expressing recombinant human CRF2 were used as a source of receptor for membrane preparation.
(§2) IC50 values (concentration causing a half-maximal inhibition of control specific binding) and Hill coefficients (nH) were determined by non-linear regression analysis of the competition curves generated with mean replicate values using Hill equation curve fitting. The inhibition constants (Ki) were calculated using the Cheng Prusoff equation [Ki=IC50/(1+L/KD) where L is the concentration of radioligand in the assay, and KD is the affinity of the radioligand for the receptor). A Scatchard plot was used to determine the KD.

[5] = molecular target: T2, anti-target CRF1R receptor; experiment: cell-based or functional assay
[6] = molecular target: T1, recombinant human CRF2 (HEK cell …); experiment: radioligand competition against [125]sauvagine (0.1 nM), HEK membranes with recombinant human CRF2; Cheng Prusoff
Description: as §1, §2

Molecule	cumulative food intake over 15 days ([1]; 8 nmol/kg s.c. every second day) [g]	lean mass change ([1]; 8 nmol/kg s.c. every second day, 15 days) [%]	relative body weight change ([1]; 8 nmol/kg s.c. every second day, 15 days, mean±SEM) [%]	reduction in body fat content ([1]; 8 nmol/kg s.c. every second day, day 15 vs day 0) [%]	food intake after first administration ([1]; 8 nmol/kg s.c., normalized after second treatment (FIG. 1))	Duration (h): last time point for which a significant effect on BP was still seen [2] [h]	Effect on Systolic Pressure % change from baseline 8 h ([2]; 8 h) [%]	Effect on Systolic Pressure % change from baseline 24 h ([2]; 24 h) [%]	EC50 [nM], 0% HSA (cAMP, A7R5 cells) [3] [nM]	nH [4]	EC50[nM] 0% HSA (cAMP, CRF1R-overexpression CHO cells) [5] [nM]	Emax (%) (cAMP, CRF1R-overexpression CHO cells) [5]	Ki [6] [nM]
CC[C@H](C)[C@H](N)C(=O)N[C@H](C(=O)N[C@@H](CC(C)C)C(=O)N[C@@H](CO)C(=O)N[C@@H](CC(C)C)C(=O)N[C@@H](CC(=O)O)C(=O)N[C@H](C(=O)N1CCC[C@H]1C(=O)N[C@H](C(=O)N[C@@H](CCCCN)C(=O)N[C@@H](CC(C)C)C(=O)N[C@@H](CCCCNC(=O)COCCOCCNC(=O)COCCOCCNC(=O)CC[C@H](NC(=O)CCCCCCCCCCCCCCCCC(=O)O)C(=O)O)C(=O)N[C@@H](CCCCN)C(=O)N[C@H](C(=O)N[C@@H](CC(C)C)C(=O)N[C@@H](CC(C)C)C(=O)N[C@@H](CCC(=O)O)C(=O)N[C@@H](CCC(N)=O)C(=O)N[C@@H](CCC(=O)O)C(=O)N[C@@H](CCCCN)C(=O)N[C@@H](CCC(N)=O)C(=O)N[C@@H](CCCCN)C(=O)N[C@@H](CCCCN)C(=O)N[C@@H](CCC(N)=O)C(=O)N[C@@H](CCCNC(=N)N)C(=O)N[C@@H](CCC(=O)O)C(=O)N[C@@H](CCC(N)=O)C(=O)N[C@@H](C)C(=O)N[C@@H](CCC(=O)O)C(=O)N[C@H](C(=O)N[C@@H](CC(N)=O)C(=O)N[C@@H](CCCCN)C(=O)N[C@@H](CCC(N)=O)C(=O)N[C@H](C(=O)N[C@@H](CC(C)C)C(=O)N[C@@H](C)C(=O)N[C@@H](CCC(N)=O)C(=O)N[C@H](C(N)=O)C(C)C)[C@@H](C)CC)[C@@H](C)O)[C@@H](C)CC)[C@@H](C)CC)C(C)C)C(C)C [SEQ ID NO: 35] (H-IVLSLDVPIKLK([AEEA-AEEA-γGlu-C18 diacid])KILLEQEKQKKQREQAETNKQILAQV-NH2)	39.3 ± 2.5	−6.3±1.7	−10.8±1.4	−34.2±2.9	meaningful reduction of food intake	30	−14.1	−5.0					
B1									0.87	0.8	> 1000	3.38	
B2										1.5			4.4

— patent US12679878B2, “CRF2 receptor agonists and their use in therapy” (SANOFI, priority 2020, dated 2026)
